Calls of active or inactive are those of the source. How the calls were made is not given here.
Target: Ras-related C3 botulinum toxin substrate 1 (Homo sapiens) (UniProt P63000)
Experiment: wildtype Rac1 GTP binding inhibitors, SAR follow-up, biochemical, additional analogs, multiplex bead flow cytometry (AID 2040)
Details: for Ki: measured here: Ki derived from EC50

Structure (SMILES) | EC50 | Ki
O=Nc1c(-c2c(O)[nH]c3ccccc23)[nH]c2ccccc12 | > 30 µM (inactive) | 
O=Nc1c(-c2c(O)[nH]c3c(Cl)cccc23)[nH]c2ccccc12 | > 30 µM (inactive) | 
O=Nc1c(-c2c(O)[nH]c3c(F)cccc23)[nH]c2ccccc12 | > 30 µM (inactive) | 
COc1cc(-c2c(C#N)c(N)n(S(=O)(=O)c3c(C(C)C)cc(C(C)C)cc3C(C)C)c2C(=O)c2ccccc2)cc(OC)c1OC |  | 7.04 µM
O=C1C(c2c(O)[nH]c3c(F)cccc23)=Nc2ccccc21 | inactive | 3.23 µM
O=C1Nc2cccc(Br)c2/C1=C1/Cc2ccccc2C1=O |  | 1.13 µM
O=C1C(c2c(O)[nH]c3ccc(Br)cc23)=Nc2ccccc21 | inactive | 1.51 µM
CSc1ccc(/C=C2/C(C)=C(CC(=O)O)c3cc(F)ccc32)cc1 |  | 5.11 µM
O=C1C(c2c(O)[nH]c3c(Cl)cccc23)=Nc2ccccc21 | > 30 µM (inactive) | 
COc1ccc(S(=O)(=O)n2c(N)c(C#N)c(-c3cncc(Br)c3)c2C(=O)c2ccccc2)cc1 |  | 0.92 µM
O=C1N=c2ccccc2=C1c1[nH]c(=O)[nH]c1O | inactive | 0.25 µM
O=Nc1c(-c2c(O)[nH]c3ccc(Br)cc23)[nH]c2ccccc12 | > 30 µM (inactive) | 
O=Nc1c(-c2c(O)[nH]c3c(Br)cccc23)[nH]c2ccccc12 | > 30 µM (inactive) | 
O=C1N=c2ccccc2=C1c1[nH]c(=S)[nH]c1O | inactive | 0.16 µM
O=C1C(c2c(O)[nH]c3ccccc23)=Nc2ccccc21 | > 30 µM (inactive) | 
O=C1C(c2c(O)[nH]c3c(Br)cccc23)=Nc2ccccc21 | > 30 µM (inactive) | 

— PubChem BioAssay AID2040 (NMMLSC, 2009)
